Test systems include HCC 2998; OVCAR-4; HL-60; HCT-15; NCI-H23; UACC-257; ACHN; RPMI-8226; KM12; SNB-19; SF-295; SR; MDA-MB-231; NCI-H460; U-251; T47D; M14; OVCAR-5; EKVX.
Common to all, as to assay: NCI anticancer screen, dose series, 48 h

Values joined by “and” are separate entries in the source; they are usually repeats but may differ in a detail not shown here. Equal entries are not always repeated.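 Results reflect a 48-hour exposure of cells in 96-well plates to compound at five concentrations. The concentration for 50% growth inhibition is given as GI50.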 Active and inactive are the calls of the source. Cut-off read from the data, not from the text of the source: active = GI50 up to about 1.1 µM and inactive = higher.

As to `CC(=O)C1=C(c2ccccc2)N(C2OC(CO)C(O)C(O)C2O)C(S)=C(C#N)C1c1ccc(Cl)cc1` (stereo not drawn), the GI50 is 17.7 µM (inactive) in the assay with HCC 2998; 29.6 µM (inactive) with OVCAR-4; 42.4 µM (inactive) in the assay on HL-60; 23 µM in the assay on HCT-15; 36 µM (inactive) in the assay with NCI-H23; 25.4 µM (inactive) in the assay on UACC-257. Further, the GI50 in the assay on ACHN is 29.7 µM (inactive); in the assay with RPMI-8226, 29.9 µM (inactive); in the assay with KM12, 23.2 µM (inactive); in the assay on SNB-19, 34.9 µM (inactive); in the assay on SF-295, 35.9 µM (inactive); in the assay with SR, 29.1 µM (inactive). Further, the GI50 with MDA-MB-231 is 28.1 µM (inactive); in the assay with NCI-H460 it was 21.9 µM (inactive); in the assay with U-251, 17.9 µM (inactive); with T47D, 10.3 µM (inactive); in the assay with M14, 21 µM (inactive); in the assay on OVCAR-5, 62.2 µM (inactive).

Consider `O=C1/C(=C/c2ccccc2O)N=C(c2ccccc2)N1C1Nc2cc3c(cc2S1)NC(N1C(=O)/C(=C/c2ccccc2O)N=C1c1ccccc1)S3` (stereo not drawn), for which the GI50 was 33.6 µM (inactive) in the assay on HCC 2998; 60.5 µM (inactive) in the assay on OVCAR-4; 28.9 µM (inactive) with HL-60; 13.5 µM in the assay with HCT-15; 31.9 µM (inactive) in the assay on NCI-H23; 66.8 µM (inactive) in the assay on UACC-257. Moreover, the GI50 was 21.7 µM (inactive) with ACHN; 26.1 µM (inactive) with RPMI-8226; 41.3 µM (inactive) in the assay with KM12; 46.7 µM (inactive) in the assay with EKVX; 42.1 µM (inactive) in the assay with SF-295; 18.3 µM (inactive) in the assay on SR. In addition, the GI50 in the assay with MDA-MB-231 is 32.7 µM (inactive); with NCI-H460, 12.5 µM (inactive); with U-251 it was 29.6 µM (inactive); in the assay with T47D, 8.05 µM (inactive); with M14 it was 38.3 µM (inactive); with OVCAR-5, > 100 µM (inactive).

In the case of `N#Cc1c(-c2ccccc2)c(C#N)c(=S)n(C2OC(CO)C(O)C(O)C2O)c1N` (stereo not drawn), the GI50 in the assay on HCC 2998 is > 100 µM (inactive) and 96.4 µM (inactive); in the assay on OVCAR-4, > 100 µM (inactive); in the assay with HL-60, > 100 µM (inactive); with HCT-15, > 100 µM; in the assay with NCI-H23 it was > 100 µM (inactive); in the assay on UACC-257 it was > 100 µM (inactive). Also, the GI50 with ACHN was 99.8 µM (inactive) and 61.2 µM (inactive); in the assay with RPMI-8226, > 100 µM (inactive) and 75.5 µM (inactive); with KM12, > 100 µM (inactive); in the assay on SNB-19, > 100 µM (inactive); in the assay on SF-295, > 100 µM (inactive); with SR, > 100 µM (inactive). Moreover, the GI50 in the assay on MDA-MB-231 was > 100 µM (inactive); in the assay on NCI-H460, 94 µM (inactive); in the assay on U-251 it was > 100 µM (inactive); in the assay on T47D, 52.6 µM (inactive) and 68.5 µM (inactive); with M14, > 100 µM (inactive); with OVCAR-5 it was > 100 µM (inactive) and 85.1 µM (inactive).

Consider `CC(=O)OCC1OC(n2c(C)cc(C)c(C#N)c2=S)C(OC(C)=O)C(OC(C)=O)C1OC(C)=O` (stereo not drawn), for which the GI50 in the assay on HCC 2998 was > 100 µM (inactive); in the assay on OVCAR-4, > 100 µM (inactive); in the assay with HL-60, > 100 µM (inactive); with HCT-15 it was > 100 µM; in the assay on NCI-H23 it was > 100 µM (inactive); in the assay with UACC-257, > 100 µM (inactive). In addition, the GI50 in the assay with ACHN, in the assay with RPMI-8226, in the assay on KM12, in the assay on SNB-19, in the assay on SF-295 and with SR was > 100 µM (inactive) in each case. Moreover, the GI50 in the assay on MDA-MB-231, with NCI-H460, in the assay with U-251, in the assay with T47D, in the assay with M14 and in the assay on OVCAR-5 was > 100 µM (inactive) in each case.

Regarding `COCOc1c(C(OCOC)c2cnc(Sc3ccccc3)n2C)ccc(OC)c1OC` (stereo not drawn), the GI50 with HCC 2998 was > 100 µM (inactive); in the assay on OVCAR-4, > 100 µM (inactive); in the assay on HL-60, > 100 µM (inactive); in the assay with HCT-15, > 100 µM; with NCI-H23, > 100 µM (inactive); in the assay on UACC-257 it was 63.2 µM (inactive). The GI50 in the assay with ACHN is > 100 µM (inactive); in the assay with RPMI-8226, 65 µM (inactive); in the assay on KM12, > 100 µM (inactive); with EKVX it was > 100 µM (inactive); in the assay on SNB-19, > 100 µM (inactive); with SF-295, > 100 µM (inactive). Further, the GI50 is 52.5 µM (inactive) with SR; > 100 µM (inactive) with MDA-MB-231; > 100 µM (inactive) in the assay with NCI-H460; > 100 µM (inactive) with U-251; 82.2 µM (inactive) in the assay on T47D; > 100 µM (inactive) in the assay with OVCAR-5.

Regarding `COc1ccc(N(C(=O)Nc2ccc(Cl)c(Cl)c2)c2ccccc2)cc1`, the GI50 was > 10 µM (inactive) in the assay on HCC 2998; > 10 µM (inactive) with OVCAR-4; > 10 µM (inactive) in the assay on HL-60; > 10 µM with HCT-15; > 10 µM (inactive) in the assay on NCI-H23; > 10 µM (inactive) in the assay on UACC-257. Also, the GI50 in the assay on ACHN, in the assay on KM12, with EKVX, in the assay on SNB-19, in the assay on SF-295 and in the assay with SR was > 10 µM (inactive) each time. In addition, the GI50 in the assay with MDA-MB-231, in the assay with NCI-H460, in the assay with U-251, in the assay with T47D, with M14 and in the assay with OVCAR-5 was > 10 µM (inactive) each time.

Take `Cc1cccc2c1[C@]13OC(C)[C@]4(C)CC5OC(=O)[C@@]1(C)[C@@H]5[C@]34C(=O)O2` (stereo partly drawn): the GI50 in the assay on HCC 2998 is > 100 µM (inactive); in the assay on HL-60, > 100 µM (inactive); with HCT-15, > 100 µM; in the assay on NCI-H23 it was > 100 µM (inactive); with UACC-257, > 100 µM (inactive); in the assay on ACHN, > 100 µM (inactive). For the same compound, the GI50 with RPMI-8226, in the assay with KM12, in the assay with EKVX, with SNB-19, with SF-295 and with SR was > 100 µM (inactive) throughout. Further, the GI50 in the assay on MDA-MB-231, in the assay with NCI-H460, in the assay with U-251, with T47D, with M14 and in the assay with OVCAR-5 was > 100 µM (inactive) throughout.

As for `COc1ccc2c(c1)CC1=C(O2)c2ccc(OC)cc2OC1`, the GI50 in the assay on HCC 2998 was 38.5 µM (inactive); in the assay on OVCAR-4 it was 22.5 µM (inactive); in the assay with HL-60, > 100 µM (inactive); with HCT-15, 17.2 µM; with NCI-H23, 45.7 µM (inactive); in the assay on UACC-257, 19.2 µM (inactive). Further, the GI50 is 18.2 µM (inactive) in the assay on ACHN; 33.7 µM (inactive) in the assay on RPMI-8226; 31 µM (inactive) in the assay with KM12; 15.2 µM (inactive) in the assay with EKVX; 52.2 µM (inactive) with SF-295; 36.8 µM (inactive) in the assay with SR. Also, the GI50 in the assay with MDA-MB-231 was 39.6 µM (inactive); in the assay on U-251, 17.5 µM (inactive); in the assay with T47D it was 13.9 µM (inactive); in the assay with M14, 19.7 µM (inactive); in the assay on OVCAR-5 it was 49.4 µM (inactive).

(Values after ChEMBL document CHEMBL1201862, “PubChem BioAssay data set” (2004).)
